One test has as its target R2R3 (V287I) tau peptide (Homo sapiens, UniProt P10636, V604I). The test can be described thus: SPR titration cycle kinetics, immobilized R2R3 (V287I) peptide. It counts as binding. As to the method:
(§1) SPR experiments were conducted using the Sierra® SPR‐24 Pro system (Bruker Daltonics, Bremen, Germany), featuring a gold‐coated microfluidic array (24 detection spots, 3 × 8 format). Data acquisition and kinetic analysis were performed using SPR Analyzer 4 software.
(§2) All experiments were conducted at 25°C using PBS (pH 7.4) supplemented with 0.05% Tween‐20 and 5% DMSO as the running buffer to ensure assay reproducibility. Assay components, including 96‐well microtiter plates (Part # 1862984; Burker) and Microplate and Reservoir Sealer (Part #1862985; Burker), were used for sample handling and were compatible with the Sierra SPR®‐24 Pro system (Bruker Daltonics, Billerica, MA, USA).
(§3) WT and mutant (P301L, V287I, and N279K) tau peptides were dissolved in 10 mM sodium acetate buffer (pH 5.0; Burker) and immobilized onto High‐Capacity Amine Sensor Surfaces (Part #1862614; Bruker) using the Amine Coupling Kit (Part #1862634; Bruker). The sensor surface was preconditioned with a Surface Elution Buffer (Part #1862656; Bruker Daltonics) and 0.1M HCl to remove contaminants and improve binding specificity.
(§4) The surface was activated using 400 mM 1‐ethyl‐3‐(3‐dimethylaminopropyl) carbodiimide (Burker) and 50 mM N‐hydroxysuccinimide (Burker), enabling covalent attachment of tau peptides. Unreacted binding sites were blocked with 1M ethanolamine‐HCl (pH 8.5; Burker) to minimize nonspecific interactions. For each experiment, specific sensor spots (A/B/C) on channels 1–8 were designated for tau‐analyte interactions, with corresponding reference spots on the same channel for baseline correction. DMSO calibration solutions (4.6%, 4.8%, 5%, 5.2%, and 5.4%) were prepared for double referencing to compensate for DMSO solvent effects.
(§5) PUR and OLC were prepared in PBS (pH 7.4) supplemented with 0.05% Tween‐20 and 5% DMSO. Compound interactions with tau peptides were pre‐screened using a concentration range of 1–100 μM, and subsequent binding kinetics were evaluated at optimized concentrations. For kinetic studies, PUR was tested at […], while OLC was tested at 25–100 μM using two‐fold serial dilutions. Each analyte was sequentially injected, and association and dissociation phases were monitored to determine kinetic parameters.
(§6) SPR binding kinetics were assessed using the titration cycle kinetics (TCK) assay, which included consecutive association phases followed by a single dissociation phase. Pre‐assay simulations using the Kinetic Simulator feature of SPR Analyzer 4 software were used to optimize analyte concentration ranges and association/dissociation times. A reference blank injection was included for double referencing, and a single dissociation curve was recorded for the highest analyte concentration.
(§7) Sensorgrams were analyzed using the Kinetic Titration model, which was integrated into the global kinetic fitting model of the SPR Analyzer 4 software. This approach allowed for baseline correction and improved the reliability of kinetic parameters, including the Kon, Koff, and KD.
(§8) TCK‐derived kinetic parameters were compared across multiple runs and confirmed using Multi Injection Cycle Kinetics to validate reproducibility and accuracy.

A further test concerns the target R2R3 (N279K) tau peptide (Homo sapiens, UniProt P10636, N596K). The test can be described thus: SPR titration cycle kinetics, immobilized R2R3 (N279K) peptide. The format is binding. As to the method: as §1, §2, §3, §4, §5, §6, §7, §8
Test [1] relates to Tau RD P301S FRET Biosensor cells. Nature of the test: Biosensor cell seeding assay, aggregation products formed with compound (co-aggregation). It counts as cell-based. The note with it: 100 nM transduced, 48 h. On the procedure: Tau peptides were aggregated with or without PUR or OLC in a 7.4 pH aggregation buffer without ThT. After 48 h, the contents of each well were pooled to a final total volume of 120 μL. The concentration of the pooled Aggregation Reaction Products was measured using the Pierce™ BCA Protein Assay Kit (Thermo Fisher Scientific Inc., Cat. # 23225). The reaction products were standardized for cell transduction to a final concentration of 100 nM for both control and drug‐treated samples. The pooled aggregation mixture was sonicated using a Branson Ultrasonic™ Sonifier Cup Horns (Marshall Scientific, Hampton, NH, USA) at 30% amplitude (15 s ON and 15 s OFF for 1 min) to fragment larger aggregates into smaller ones, facilitating consistent transduction.
Tau RD P301S FRET Biosensor cells were plated at 5 × 10^3 cells per well in PhenoPlate 384‐well, black, optically clear flat‐bottom plates (Revvity; Part # 6057302) pre‐coated with 50 μg/mL Poly‐ᴅ‐Lysine (Sigma‐Aldrich, Cat. # P6407). After plating, cells were incubated for 30 min at room temperature to promote better cell spreading before returning the plates to the incubator.
The next day, cells were transduced with 100 nM of aggregation mixture, which were either: (i) prepared in the absence (control) or presence of 10 μM PUR or OLC for co‐aggregation studies (Figure 5), or (ii) prepared exclusively in the absence of compounds for post‐transduction treatment studies (Figure 6). The aggregation mixtures were premixed with 0.2 μL per well TurboFect™ Transfection Reagent (Thermo Fisher Scientific Inc., Cat. # R0533) in 10 μL Opti‐MEM™ (Thermo Fisher Scientific Inc., Cat. #11058021) and added to cells.
For co‐aggregation studies (Figure 5), cells were cultured for 48 h after transduction before processing for imaging. For post‐transduction treatment studies (Figure 6), cells were cultured for 24 h following transduction, then treated with PUR or OLC at concentrations ranging from 0 to 10 μM, and incubated for an additional 24 h.
In both experiments (Figures 5 and 6), cells were fixed after a total of 48 h with 2% paraformaldehyde (Electron Microscopy Services, Cat. #15714‐1 L) for 10 min at room temperature, washed once with 1× PBS, and stained with 10 μM Hoechst‐33342 nuclear dye (Invitrogen, Cat. #H21492) for 10–15 min. To preserve samples for imaging, 1% glycerol in deionized water was added to each well.
Cells were imaged on a Cell Voyager 7000S high‐content imaging system (Yokogawa, Tokyo, Japan) with a 20× objective. CFP/YFP inclusions of seeded tau were detected using a 488 nm laser line (Ex = 460–490 nm, Em = 500–550 nm), and Hoechst‐stained nuclei were detected using a 405 nm laser line (Ex = 360–400 nm, Em = 410–480 nm). At least 10–15 focal areas per well were imaged for each replicate. Image analysis was performed using Signals Image Artist (Revvity) to quantify the number of cells (Hoechst‐stained nuclei) and intracellular CFP/YFP inclusions. Total inclusions per well were normalized to cell confluence and are presented as normalized seeding for graphing.

The mark [2] stands for this setting: R2R3 N279K aggregated with 10 μM compound.
The mark [3] stands for this setting: R2R3 P301L aggregated with 10 μM compound.
Where [4] appears, read: R2R3 V287I aggregated with 10 μM compound.
[5] abbreviates: R2R3 WT aggregated with 10 μM compound.

Molecules are shown by their SMILES. Entries after “also recorded” stand apart in the source; their conditions may differ. Like-named read-outs stand apart in the source and are kept apart here.

R2R3 (N279K) tau peptide, sequence (P10636 592-653 N596K): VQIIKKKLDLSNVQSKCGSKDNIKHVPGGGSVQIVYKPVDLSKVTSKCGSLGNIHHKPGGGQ
R2R3 (V287I) tau peptide, sequence (P10636 592-653 V604I): as the sequence (P10636 592-653 N596K) above, with K5N, V13I counted along it

Usually koff stands for the rate constant with which the complex falls apart. As usually defined, the Kd is the constant that tells how readily two partners part at equilibrium. As to `C/C=C(/C=O)[C@@H](CC=O)CC(=O)OCCc1ccc(O)cc1` [OLC, oleocanthal], the Kon came to 42.24 M⁻¹ s⁻¹ on R2R3 (V287I) tau peptide (SPR, R2R3 V287I) and 34.60 M⁻¹ s⁻¹ at R2R3 (N279K) tau peptide (SPR, R2R3 N279K). Further, the koff at R2R3 (V287I) tau peptide (SPR, R2R3 V287I) worked out at 8.69e-05 s⁻¹; at R2R3 (N279K) tau peptide (SPR, R2R3 N279K), 6.87e-05 s⁻¹. The Kd worked out at 2.06 µM at R2R3 (V287I) tau peptide (SPR, R2R3 V287I peptide immobilized, 25°C, PBS pH 7.4, read-out: KD) and 1.98 µM at R2R3 (N279K) tau peptide (SPR, R2R3 N279K peptide immobilized, 25°C, PBS pH 7.4, read-out: KD). The “intracellular seeding (CFP/YFP inclusions) by aggregation products” value in test [1] (setting [2]) is listed as “abolished the formation of species capable of inducing intracellular seeding; also recorded: significantly reduced seeding”; in test [1] (setting [3]), “abolished the formation of species capable of inducing intracellular seeding; also recorded: significantly reduced seeding”; in test [1] (setting [4]) it was “abolished the formation of species capable of inducing intracellular seeding; also recorded: near‐complete inhibition of seeding”; in test [1] (setting [5]), “effectively abolishing intracellular seeding”.

The kon is a measure of how fast the partners come together. With `O=C1c2ccccc2C(=O)c2c(O)c(O)cc(O)c21` [PUR, purpurin], the Kd was determined as 4.73 µM on R2R3 (V287I) tau peptide and 4.22 µM at R2R3 (N279K) tau peptide. For the same compound, the association rate constant (kon) turned out to be 42.1 M⁻¹ s⁻¹ at R2R3 (V287I) tau peptide (SPR, R2R3 V287I) and 70.3 M⁻¹ s⁻¹ at R2R3 (N279K) tau peptide (SPR, R2R3 N279K). For the same compound, the koff at R2R3 (V287I) tau peptide (SPR, R2R3 V287I, read-out: Koff) is 0.000199 s⁻¹; at R2R3 (N279K) tau peptide (SPR, R2R3 N279K, read-out: Koff), 0.000297 s⁻¹. The “intracellular seeding (CFP/YFP inclusions) by aggregation products” value in test [1] (setting [2]) is “abolished the formation of species capable of inducing intracellular seeding; also recorded: significantly reduced seeding”; in test [1] (setting [3]), “abolished the formation of species capable of inducing intracellular seeding; also recorded: significantly reduced seeding”; in test [1] (setting [4]), “abolished the formation of species capable of inducing intracellular seeding; also recorded: near‐complete inhibition of seeding”; in test [1] (setting [5]), “did not affect the seeding competency”.

The values are drawn from paper PMC12381781, “Structural and functional insights into the selective inhibition of mutant tau aggregation by purpurin and oleocanthal in frontotemporal dementia” (Protein Science : A Publication of the Protein Society, 2025).
